Our source for the MIC and IC50 values is patent publication US11130741B2 (Bioimics AB, priority 2016, dated 2021).

In assay [1] the test system is Staphylococcus aureus (ATCC25923). Nature of the assay: MIC, broth microdilution (CLSI), Staphylococcus aureus ATCC25923. Background: In broth dilution the organism is exposed to a series of concentrations in liquid medium.
Assay [2] deals with E. coli RNase P RNA, M1 RNA. Nature of the assay: Inhibition of bacterial RNase P activity, IC50 determination (cleavage of pATSerUG by M1 RNA). The class given is biochemical. The settings on record: NI = No inhibition.
The test system of assay [3] is Escherichia coli (ATCC25922). Nature of the assay: MIC, broth microdilution (CLSI), Escherichia coli ATCC25922.
Where [4] appears, read: ATCC25923, read-out: S. aureus ("Clinical") MIC.
The mark [5] stands for this setting: ATCC25922, read-out: E. coli MIC, Table 15, NI = No inhibition.

The structures appear in SMILES notation. In brackets after ≈: the same amount, converted by molar mass. Where a name gives a salt, the structure may show the parent alone. Read-outs that look alike come from different tables or passages of the source.

Usually MIC stands for the lowest concentration that inhibits growth of the organism. For orientation: IC50 means the concentration that inhibits the measured activity by half. Higher therefore signals weaker potency. For the molecule `NC1CCC(CNc2cc(C(F)(F)F)cc3c2Nc2ccccc2S3)CC1` (stereo not drawn) [compound 108, N-((4-aminocyclohexyl)methyl)-3-(trifluoromethyl)-10H-phenothiazin-1-amine], the minimal inhibitory concentration (MIC) in assay [1] (setting [4]) was 8 µg/mL (≈ 20.3 µM); in assay [3] (setting [5]), 32 µg/mL (≈ 81.3 µM). In assay [2], this molecule came in with an IC50 of over 100 µM.

For the molecule `CN(C)CCCN1c2ccccc2Sc2cc(-c3ccccc3)ccc21` [compound 110, N,N-dimethyl-3-(3-phenyl-10H-phenothiazin-10-yl)propan-1-amine], the minimal inhibitory concentration (MIC) in assay [1] (setting [4]) is 6 µg/mL (≈ 16.6 µM); in assay [3] (setting [5]), over 100 µg/mL. This molecule displayed a half-maximal inhibitory concentration (IC50) in assay [2] of over 100 µM.

In the case of `O=C(CC1(O)CCC(F)(F)CC1)Nc1cc(C(F)(F)F)cc2c1Nc1ccccc1S2` [compound 115, 2-(4,4-difluoro-1-hydroxycyclo-hexyl)-N-(3-(trifluoromethyl)-10H-phenothiazin-1-yl)acetamide], the MIC in assay [1] (setting [4]) was 7 µg/mL (≈ 15.3 µM); in assay [3] (setting [5]), over 100 µg/mL. In addition, the IC50 in assay [2] is over 100 µM.

`CN(C)CCCN1c2ccccc2Sc2cc(C3CC3)ccc21` [compound 116, 3-(3-cyclopropyl-10H-phenothiazin-10-yl)-N,N-dimethylpropan-1-amine]: the MIC is 42 µg/mL (≈ 129 µM) in assay [1] (setting [4]) and over 100 µg/mL in assay [3] (setting [5]). In addition, the 50% inhibitory concentration (IC50) in assay [2] is over 100 µM.

For `CN(C)CCCN1c2ccccc2Sc2cc(-c3ccc4[nH]cnc4c3)ccc21` [compound 117, 3-(3-(1H-benzo[d]imidazol-5-yl)-10H-phenothiazin-10-yl)-N,N-dimethylpropan-1-amine], the MIC in assay [1] (setting [4]) is 26 µg/mL (≈ 64.9 µM); in assay [3] (setting [5]), over 100 µg/mL. In assay [2], this molecule returned a half-maximal inhibitory concentration (IC50) of over 100 µM.

As for `N[C@H]1CCC[C@@H](C(=O)Nc2cc(C(F)(F)F)cc3c2Nc2ccccc2S3)C1` [compound 118, (1R,3S)-3-amino-N-(3-(trifluoromethyl)-10H-phenothiazin-1-yl)cyclohexane-carboxamide], the MIC was found to be 13 µg/mL (≈ 31.9 µM) in assay [1] (setting [4]) and 26 µg/mL (≈ 63.8 µM) in assay [3] (setting [5]). Also, the half-inhibitory concentration (IC50) in assay [2] amounted to 17 µM.

As for `N#Cc1cc(NC(=O)C2CCCC(N)C2)c2c(c1)Sc1ccccc1N2` (stereo not drawn) [compound 119, 3-amino-N-(3-cyano-10H-phenothiazin-1-yl)cyclohexane-carboxamide], the figures for the MIC in assay [1] (setting [4]) and in assay [3] (setting [5]) were 93 µg/mL (≈ 255 µM) and over 100 µg/mL, respectively. In assay [2], the 50% inhibitory concentration (IC50) was over 100 µM.

Take `NC[C@H]1CC[C@H](C(=O)Nc2cc(C(F)(F)F)cc3c2Nc2ccccc2S3)CC1` [compound 120, (1R,4R)-4-(aminomethyl)-N-(3-(trifluoromethyl)-10H-phenothiazin-1-yl)cyclohexane-carboxamide]: the MIC in assay [1] (setting [4]) is 27 µg/mL (≈ 64.1 µM); in assay [3] (setting [5]) it was over 100 µg/mL. Also, 12 µM corresponded to half-maximal inhibition in assay [2] (IC50).

Take `CN(C)CCCN1c2ccccc2Sc2cc(-c3ccc4[nH]ccc4c3)ccc21` [compound 121, 3-(3-(1H-indol-5-yl)-10H-phenothiazin-10-yl)-N,N-dimethylpropan-1-amine]: the MIC in assay [1] (setting [4]) is 6 µg/mL (≈ 15 µM); in assay [3] (setting [5]), over 100 µg/mL. The same molecule returned an IC50 in assay [2] of over 100 µM.

In the case of `CN(C)CCCN1c2ccccc2Sc2cc(-c3ccnc(F)c3)ccc21` [compound 122, 3-(3-(2-fluoropyridin-4-yl)-10H-phenothiazin-10-yl)-N,N-dimethylpropan-1-amine], the minimal inhibitory concentration (MIC) in assay [1] (setting [4]) is 24 µg/mL (≈ 63.2 µM); in assay [3] (setting [5]), over 100 µg/mL. This molecule also showed an IC50 in assay [2] of over 100 µM.

Turning to `NC1CCCC(C(=O)Nc2cc(C(F)(F)F)cc3c2Nc2cc(F)ccc2S3)C1.O=C(O)C(F)(F)F` (stereo not drawn) [compound 124, 3-Amino-N-(8-fluoro-3-(trifluoromethyl)-10H-phenothiazin-1-yl)cyclohexane carboxamide. TFA Salt], the figures for the minimal inhibitory concentration (MIC) in assay [1] (setting [4]) and in assay [3] (setting [5]) were 17 µg/mL and 35 µg/mL, respectively. The same molecule had a half-inhibitory concentration (IC50) in assay [2] of 59 µM.

For the molecule `N[C@@H]1CCC[C@H](C(=O)Nc2cc(C(F)(F)F)cc3c2Nc2ccccc2S3)C1` [compound 125, (1S,3R)-3-amino-N-(3-(trifluoromethyl)-10H-phenothiazin-1-yl)cyclohexane-carboxamide], the MIC in assay [1] (setting [4]) was 13 µg/mL (≈ 31.9 µM); in assay [3] (setting [5]), 26 µg/mL (≈ 63.8 µM). Besides, in assay [2], the half-inhibitory concentration (IC50) stood at 20 µM.

For the molecule `CN(C)CCCN1c2ccc(Cl)cc2Sc2cccnc21` [compound 126, 3-(7-chloro-10H-benzo[b]pyrido [2,3-e][1,4]thiazin-10-yl)-N,N-dimethyl-propan-1-amine], the minimal inhibitory concentration (MIC) in assay [1] (setting [4]) is 82 µg/mL (≈ 256 µM); in assay [3] (setting [5]), over 100 µg/mL. The IC50 in assay [2] was over 100 µM.

Turning to `CN(C)CCCN1c2ccccc2Sc2cc(-c3cccc4cn[nH]c34)ccc21` [compound 129, 3-(3-(1H-indazol-7-yl)-10H-phenothiazin-10-yl)-N,N-dimethylpropan-1-amine], the results for the MIC in assay [1] (setting [4]) and in assay [3] (setting [5]) were 6 µg/mL (≈ 15 µM) and over 100 µg/mL, respectively. Moreover, in assay [2], the IC50 was over 100 µM.

As for `CN(C)CCCN1c2ccccc2Sc2cc(-c3ccc4scnc4c3)ccc21` [compound 130, 3-(3-(benzo[d]thiazol-5-yl)-10H-phenothiazin-10-yl)-N,N-dimethylpropan-1-amine], the results for the MIC in assay [1] (setting [4]) and in assay [3] (setting [5]) were 7 µg/mL (≈ 16.8 µM) and over 100 µg/mL, respectively. Further, inhibition in assay [2] was half-maximal at 57 µM (IC50).

As to `O=C(CC1CCC(F)(F)CC1)Nc1cc(C(F)(F)F)cc2c1Nc1ccccc1S2` [compound 132, 2-(4,4-difluorocyclo-hexyl)-N-(3-(trifluoromethyl)-10H-phenothiazin-1-yl)acetamide], the MIC is 4 µg/mL (≈ 9.04 µM) in assay [1] (setting [4]) and over 100 µg/mL in assay [3] (setting [5]). Further, in assay [2], the half-inhibitory concentration (IC50) is over 100 µM.

Take `Nc1cccc(C(=O)Nc2cc(C(F)(F)F)cc3c2Nc2ccccc2S3)c1` [compound 134, 3-amino-N-(3-(trifluoromethyl)-10H-phenothiazin-1-yl)benzamide]: the MIC in assay [1] (setting [4]) is 6 µg/mL (≈ 14.9 µM); in assay [3] (setting [5]), over 100 µg/mL. The molecule further had a 50% inhibitory concentration (IC50) in assay [2] of over 100 µM.

Take `CN(C)CCCN1c2ccccc2Sc2cc(-c3nc4ccccc4[nH]3)ccc21` [compound 137, 3-(3-(1H-benzo[d]imidazol-2-yl)-10H-phenothiazin-10-yl)-N,N-dimethylpropan-1-amine]: the MIC in assay [1] (setting [4]) was 13 µg/mL (≈ 32.5 µM); in assay [3] (setting [5]) it was over 100 µg/mL. Inhibition in assay [2] was half-maximal at 160 µM (IC50).

As to `CN(C)CCCN1c2ccccc2Sc2cc(-c3nc4ccccc4s3)ccc21` [compound 143, 3-(3-(Benzo[d]thiazol-2-yl)-10H-phenothiazin-10-yl)-N,N-dimethylpropan-1-amine], the minimal inhibitory concentration (MIC) is 3 µg/mL (≈ 7.18 µM) in assay [1] (setting [4]) and over 100 µg/mL in assay [3] (setting [5]). The half-maximal inhibitory concentration (IC50) in assay [2] was over 100 µM.

Turning to `COc1ccc2[nH]c(-c3ccc4c(c3)Sc3ccccc3N4CCCN(C)C)cc2c1` [compound 144, 3-(3-(5-methoxy-1H-indol-2-yl)-10H-phenothiazin-10-yl)-N,N-dimethylpropan-1-amine], the MIC was 3 µg/mL (≈ 6.98 µM) in assay [1] (setting [4]) and over 100 µg/mL in assay [3] (setting [5]). In assay [2], the IC50 is over 100 µM.

`O=C(Nc1cc(C(F)(F)F)cc2c1Nc1ccccc1S2)C1CCCC(O)C1` (stereo not drawn) [compound 148, 3-hydroxy-N-(3-(trifluoromethyl)-10H-phenothiazin-1-yl)cyclohexane-carboxamide]: the minimal inhibitory concentration (MIC) in assay [1] (setting [4]) was 26 µg/mL (≈ 63.7 µM); in assay [3] (setting [5]), over 100 µg/mL. Further, in assay [2], the half-maximal inhibitory concentration (IC50) was over 100 µM.

For the molecule `NCC1CCCC(C(=O)Nc2cc(C(F)(F)F)cc3c2Nc2ccccc2S3)C1` (stereo not drawn) [compound 149, 3-(aminomethyl)-N-(3-(trifluoromethyl)-10H-phenothiazin-1-yl)cyclohexane-carboxamide], the values for the MIC in assay [1] (setting [4]) and in assay [3] (setting [5]) were 13 µg/mL (≈ 30.8 µM) and 54 µg/mL (≈ 128 µM), respectively. The same molecule returned an IC50 in assay [2] of 15 µM.

For the molecule `CN(C)CCCN1c2ccccc2Sc2cc(-c3cc4cc(O)ccc4[nH]3)ccc21` [compound 152, 2-(10-(3-(dimethylamino)propyl)-10H-phenothiazin-3-yl)-1H-indol-5-ol], the MIC is 13 µg/mL (≈ 31.3 µM) in assay [1] (setting [4]) and over 100 µg/mL in assay [3] (setting [5]). Moreover, the IC50 in assay [2] is over 100 µM.

With `COc1cc(-c2ccc3c(c2)Sc2ccccc2N3CCCN(C)C)ccn1` [compound 153, 3-(3-(2-methoxypyridin-4-yl)-10H-phenothiazin-10-yl)-N,N-dimethylpropan-1-amine], the results for the MIC in assay [1] (setting [4]) and in assay [3] (setting [5]) were 25 µg/mL (≈ 63.9 µM) and over 100 µg/mL, respectively. Besides, the IC50 in assay [2] is over 100 µM.

Consider `NCCN1CCC(C(=O)Nc2cc(C(F)(F)F)cc3c2Nc2ccccc2S3)CC1` [compound 155, trifluoroacetate], for which the MIC was 35 µg/mL in assay [1] (ATCC25923, read-out: S. aureus ("Clinical") MIC, Table 15) and 35 µg/mL in assay [3] (ATCC25922, read-out: E. coli MIC). In assay [2] (trifluoroacetate), this molecule showed a concentration for half-maximal inhibition (IC50) of 53 µM.

In the case of `NC1CCCC(C(=O)Nc2cc(C(F)(F)F)cc3c2Nc2ccccc2O3)C1` (stereo not drawn) [compound 156, 3-amino-N-(3-(trifluoromethyl)-10H-phenoxazin-1-yl)cyclohexane-carboxamide], the MIC was determined as 13 µg/mL (≈ 33.2 µM) in assay [1] (setting [4]) and 25 µg/mL (≈ 63.9 µM) in assay [3] (setting [5]). Further, in assay [2], the half-inhibitory concentration (IC50) was over 100 µM.

Regarding `NCC1CCC(CNc2cc(C(F)(F)F)cc3c2Nc2ccccc2S3)CC1` (stereo not drawn) [compound 158, N-((4-(aminomethyl)cyclohexyl)methyl)-3-(trifluoromethyl)-10H-phenothiazin-1-amine], the MIC in assay [1] (setting [4]) turned out to be 3 µg/mL (≈ 7.36 µM); in assay [3] (setting [5]), 52 µg/mL (≈ 128 µM). In assay [2], it took 53 µM to reach half-maximal inhibition (IC50).

For the molecule `FC(F)(F)c1cc(NC[C@@H]2COCCN2)c2c(c1)Sc1ccccc1N2` [compound 159, (R)-N-(morpholin-3-ylmethyl)-3-(trifluoromethyl)-10H-phenothiazin-1-amine], the MIC in assay [1] (setting [4]) is 12 µg/mL (≈ 31.5 µM); in assay [3] (setting [5]), over 100 µg/mL. Also, in assay [2], the IC50 was over 100 µM.

With `NC[C@H]1CC[C@H](C(=O)Nc2cc(C(F)(F)F)cc3c2Nc2ccccc2O3)CC1` [compound 160, (1r,4r)-4-(aminomethyl)-N-(3-(trifluoromethyl)-10H-phenoxazin-1-yl)cyclohexane-carboxamide], the MIC was 26 µg/mL (≈ 64.1 µM) in assay [1] (setting [4]) and 52 µg/mL (≈ 128 µM) in assay [3] (setting [5]). Also, in assay [2], the IC50 amounted to 60 µM.

As to `NC1CCCC(C(=O)Nc2cc(Cl)cc3c2Nc2ccccc2S3)C1` (stereo not drawn) [compound 161, 3-amino-N-(3-chloro-10H-phenothiazin-1-yl)cyclohexane-carboxamide], the minimal inhibitory concentration (MIC) was 24 µg/mL (≈ 64.2 µM) in assay [1] (setting [4]) and 96 µg/mL (≈ 257 µM) in assay [3] (setting [5]). In assay [2], this molecule returned an IC50 of 68 µM.
